Our source for the IC50 values is patent publication US20260258025A1, “INHIBITORS OF TDP-43 AND TAU AGGREGATION” (Aquinnah Pharmaceuticals, inc., priority 2023, published 2026).

The structures appear in SMILES notation.

The test concerns TDP-43 aggregation. Briefly: TDP-43 aggregation assay in SY5Y TDP-43WT cells (high content imaging). The class given is cell-based. The following applies: Homo sapiens, tetracycline induction 24 hrs, 1 hour compound pre-treatment, sodium arsenite 23 hrs, 8-point dose curve, percentage of cells with TDP-43 aggregates, read-out: IC50, Inhibition of TDP-43 Aggregation. The method, then:
Exemplary compounds disclosed herein were evaluated for efficacy in inhibiting TDP-43 inclusions cellular imaging-based assays.
The cellular model was in human neuroblastoma SH SYSY cells (ATCC, cat #: CRL-2266). The parent cell line was first engineered to stably express a tetracycline repressor protein (designated as TREx-SY5Y cells, customer cell line development by ThermoFisher). Wild-type human TDP-43 with a C-terminus eGFP tag was synthesized and cloned into pcDNA5/TO expression vector (ThermoFisher). The plasmid was transfected into TREx-SY5Y cells using Lipofectamine 2000 and hygromycin resistant colonies were selected. Expression of TDP-43WT::eGFP was examined under fluorescent microscopy and Western blot upon tetracycline induction. The clone that was used for TDP-43 aggregation assay is referred to as SY5Y TDP-43WT cells hereafter.
Compound inhibition of TDP-43 aggregation was tested in an 8-point dose curve in 96-well format. Briefly, TDP-43WT::eGFP expression was induced with […] for 24 hrs (SY5Y TDP-43WT cells). The cells were then pre-treated for 1 hour with exemplary compounds before adding sodium arsenite to a final concentration of […] and incubated for another 23 hrs. At the end of the treatment the cell monolayers were washed in PBS and fixed in 4% paraformaldehyde (PFA), diluted from 16% stock (Electron Microscopy Sciences cat: #15710-S). The inhibitory effect on TDP-43 aggregation was measured using CellInsight CX7 high content imager (ThermoFisher). The percentage of cells with TDP-43 aggregates was calculated based on the total number of cells identified by DAPI staining. An 8-point dose response curve was generated, and the IC50 for each compound tested was determined (Table 3).
In Table 3 below, A indicates an IC50 (nM)<500 nM, B indicates an IC50 (nM) 500 nM to <1000 nM, C indicates an IC50 (nM) 1000 nM to <2000 nM, D indicates an IC50 (nM) 2000 nM to <6000 nM, and E indicates an IC50 (nM) 6000 nM to ≤10000 nM.
As usually defined, the IC50 is the concentration that gives 50% inhibition. Regarding `C=CCc1cc(-c2ccc(C3CCN(C4CCOCC4)CC3)cc2)sc1C(=O)N1CC[C@H](N)C1` [Compound 286], the IC50 was less than 500 nM.
As for `Cc1cc(-c2ccc(C3CCN(C4CC4)CC3)cc2)sc1C(=O)N1CC[C@H](N)C1` [Compound 175, (S)-(3-aminopyrrolidin-1-yl)(5-(4-(1-cyclopropylpiperidin-4-yl)phenyl)-3-methylthiophen-2-yl)methanone], the IC50 was less than 500 nM.
On to `Cc1cc(-c2ccc3c(c2)COCC3)sc1C(=O)N1CC[C@H](N)C1` [Compound 195, (S)-(3-aminopyrrolidin-1-yl)[5-(isochroman-7-yl)-3-methylthiophen-2-yl]methanone], for which the 50% inhibitory concentration (IC50) fell in the range of 1000 to 2000 nM.
For the molecule `Cc1cc(-c2ccc3c(c2)CCC3N(C)C)sc1C(=O)N1CC[C@H](N)C1` (stereo partly drawn) [Compound 188, ((S)-3-aminopyrrolidin-1-yl)(5-(1-(dimethylamino)-2,3-dihydro-1H-inden-5-yl)-3-methylthiophen-2-yl)methanone], the IC50 is less than 500 nM.
Take `Cc1cc(-c2ccc(C3CCC3)cc2)sc1C(=O)N1CC[C@H](N)C1` [Compound 232]: the concentration for half-maximal inhibition (IC50) lay in the range of 500 to 1000 nM.
As for `COCCN1CCC(c2ccc(-c3cc(C)c(C(=O)N4CC[C@H](N)C4)s3)cc2Cl)CC1` [Compound 248, (S)-(3-aminopyrrolidin-1-yl)(5-(3-chloro-4-(1-(2-methoxyethyl)piperidin-4-yl)phenyl)-3-methylthiophen-2-yl)methanone], the figure is 500 to 1000 nM; as for `COCCN1CCC(c2ccc(-c3cc(Cl)c(C(=O)N4CC[C@H](N)C4)s3)cc2Cl)CC1` [Compound 253, (S)-(3-aminopyrrolidin-1-yl)(3-chloro-5-(3-chloro-4-(1-(2-methoxyethyl)piperidin-4-yl)phenyl)thiophen-2-yl)methanone], less than 500 nM.
For `Cc1cc(-c2ccc(C3COC3)cc2)sc1C(=O)N1CC[C@H](N)C1` [Compound 235], the IC50 is less than 500 nM.
With `N[C@H]1CCN(C(=O)c2sc(-c3ccc(C4CCN(CCO)CC4)c(F)c3)cc2Cl)C1` [Compound 263, (S)-(3-aminopyrrolidin-1-yl)(3-chloro-5-(3-fluoro-4-(1-(2-hydroxyethyl)piperidin-4-yl)phenyl)thiophen-2-yl)methanone], the IC50 was less than 500 nM.
As for `COC(C)(C)CN1CCC(c2ccc(-c3cc(Cl)c(C(=O)N4CC[C@H](N)C4)s3)cc2F)CC1` [Compound 249, (S)-(3-aminopyrrolidin-1-yl)(3-chloro-5-(3-fluoro-4-(1-(2-methoxy-2-methylpropyl)piperidin-4-yl)phenyl)thiophen-2-yl)methanone], the half-inhibitory concentration (IC50) is less than 500 nM.
`CCc1cc(-c2cc(C)c(C(=O)N3CC[C@H](N)C3)s2)ccc1C1CCOCC1` [Compound 157, (S)-(3-aminopyrrolidin-1-yl)(5-(3-ethyl-4-(tetrahydro-2H-pyran-4-yl)phenyl)-3-methylthiophen-2-yl)methanone]: the half-inhibitory concentration (IC50) lay within 6000 to 10000 nM.
As to `N[C@H]1CCN(C(=O)c2sc(-c3ccc(C4CCN(C5CCOCC5)CC4)c(Cl)c3)cc2OC(F)(F)F)C1` [Compound 252, (S)-(3-aminopyrrolidin-1-yl)(5-(3-chloro-4-(1-(tetrahydro-2H-pyran-4-yl)piperidin-4-yl)phenyl)-3-(trifluoromethoxy)thiophen-2-yl)methanone], the IC50 was in the range of 6000 to 10000 nM.
To `COc1cc(-c2ccc(C3CCN(C4CCOCC4)CC3)c(F)c2)sc1C(=O)N1CC[C@H](N)C1` [Compound 292, (S)-(3-aminopyrrolidin-1-yl)(5-(3-fluoro-4-(1-(tetrahydro-2H-pyran-4-yl)piperidin-4-yl)phenyl)-3-methoxythiophen-2-yl)methanone] belongs 500 to 1000 nM; to `Cc1cc(-c2ccc(C3CCN(CCO)CC3)c(F)c2)sc1C(=O)N1CC[C@H](N)C1` [Compound 262, (S)-(3-aminopyrrolidin-1-yl)(5-(3-fluoro-4-(1-(2-hydroxyethyl)piperidin-4-yl)phenyl)-3-methylthiophen-2-yl)methanone], less than 500 nM.
